Tested on: KRAS patient-derived spheroids with HUVEC/MSC, viability
Experiment: Anticancer human tumor 941728-121-R-J1-PDC patient-derived lung adenocarcinoma cell line growth inhibition [KRAS2]
Conditions: for IC50: curve of first compound; for viability, T/C: stronger effect = lower value; active = viability on the fitted dose curve at most 10% of control; inactive = the rest
Procedure, shortened: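 Combination screen of spheroid viability in tumor-cell co-cultures with endothelial (HUVEC) and mesenchymal stem cell stroma. Each agent was tested in half-log dilutions, topping at clinical Cmax or at 10 microM without a known Cmax.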

[1] = second compound 0.1 µM, first compound 0.0316 µM
[2] = second compound 0.316 µM, first compound 0.0316 µM
[3] = second compound 1 µM, first compound 0.0316 µM
[4] = second compound 3.16 µM, first compound 0.0316 µM
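Also: spheroids exposed to agents for seven days before readout.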

CC(=O)Nc1cccc(-n2c(=O)n(C3CC3)c(=O)c3c(Nc4ccc(I)cc4F)n(C)c(=O)c(C)c32)c1 + CC1OCC2(CCN(c3cnc(Sc4ccnc(N)c4Cl)c(N)n3)CC2)C1N
< 0.1 nM: IC50 (second compound 0.1 µM) | IC50 (second compound 0.316 µM) | IC50 (second compound 1 µM) | IC50 (second compound 3.16 µM) | IC50 (second compound 10 µM)
inactive: viability, T/C (second compound 0.1 µM, first compound 0.0001 µM) 47.1% | viability, T/C (second compound 0.1 µM, first compound 0.000316 µM) 40.5% | viability, T/C (second compound 0.1 µM, first compound 0.001 µM) 40.2% | viability, T/C (second compound 0.1 µM, first compound 0.00316 µM) 39.1% | viability, T/C (second compound 0.1 µM, first compound 0.01 µM) 36.4% | viability, T/C [1] 27.9% | viability, T/C (second compound 0.316 µM, first compound 0.0001 µM) 38.1% | viability, T/C (second compound 0.316 µM, first compound 0.000316 µM) 39.2% | viability, T/C (second compound 0.316 µM, first compound 0.001 µM) 34.3% | viability, T/C (second compound 0.316 µM, first compound 0.00316 µM) 30.9% | viability, T/C (second compound 0.316 µM, first compound 0.01 µM) 26.4% | viability, T/C [2] 23.1% | viability, T/C (second compound 1 µM, first compound 0.0001 µM) 32.4% | viability, T/C (second compound 1 µM, first compound 0.000316 µM) 31.1% | viability, T/C (second compound 1 µM, first compound 0.001 µM) 24.8% | viability, T/C (second compound 1 µM, first compound 0.00316 µM) 22% | viability, T/C (second compound 1 µM, first compound 0.01 µM) 21.4% | viability, T/C [3] 18.2% | viability, T/C (second compound 3.16 µM, first compound 0.0001 µM) 21.6% | viability, T/C (second compound 3.16 µM, first compound 0.000316 µM) 17.2% | viability, T/C (second compound 3.16 µM, first compound 0.001 µM) 14.5% | viability, T/C (second compound 3.16 µM, first compound 0.00316 µM) 15.1% | viability, T/C (second compound 3.16 µM, first compound 0.01 µM) 14.5% | viability, T/C [4] 13.6% | viability, T/C (second compound 10 µM, first compound 0.0001 µM) 15.2% | viability, T/C (second compound 10 µM, first compound 0.000316 µM) 12.9% | viability, T/C (second compound 10 µM, first compound 0.001 µM) 11.8% | viability, T/C (second compound 10 µM, first compound 0.00316 µM) 10.4% | viability, T/C (second compound 10 µM, first compound 0.01 µM) 12.7% | viability, T/C (second compound 10 µM, first compound 0.0316 µM) 10.6%

COC(=O)c1ccc2c(C(=Nc3ccc(N(C)C(=O)CN4CCN(C)CC4)cc3)c3ccccc3)c(O)[nH]c2c1 + C=CC(=O)N1CCN(c2nc(OCC3CCCN3C)nc3c2CCN(c2cccc4cccc(C)c24)C3)CC1CC#N
active: viability, T/C (second compound 0.0316 µM, first compound 10 µM) 6.26% | viability, T/C (second compound 0.1 µM, first compound 3.16 µM) 4.92% | viability, T/C (second compound 0.1 µM, first compound 10 µM) 5.67% | viability, T/C (second compound 0.316 µM, first compound 3.16 µM) 4.34% | viability, T/C (second compound 0.316 µM, first compound 10 µM) 3.09% | viability, T/C (second compound 1 µM, first compound 3.16 µM) 0.56% | viability, T/C (second compound 1 µM, first compound 10 µM) 0.29% | viability, T/C [4] 0.27% | viability, T/C (second compound 3.16 µM, first compound 0.1 µM) 0.31% | viability, T/C (second compound 3.16 µM, first compound 0.316 µM) 0.12% | viability, T/C (second compound 3.16 µM, first compound 1 µM) 0.11% | viability, T/C (second compound 3.16 µM, first compound 3.16 µM) 0.07% | viability, T/C (second compound 3.16 µM, first compound 10 µM) 0.11%
< 31.6 nM: IC50 (second compound 0.0316 µM) | IC50 (second compound 0.1 µM) | IC50 (second compound 0.316 µM) | IC50 (second compound 1 µM) | IC50 (second compound 3.16 µM)
inactive: viability, T/C (second compound 0.0316 µM, first compound 0.0316 µM) 30.6% | viability, T/C (second compound 0.0316 µM, first compound 0.1 µM) 26.9% | viability, T/C (second compound 0.0316 µM, first compound 0.316 µM) 23.9% | viability, T/C (second compound 0.0316 µM, first compound 1 µM) 22.5% | viability, T/C (second compound 0.0316 µM, first compound 3.16 µM) 8.16% | viability, T/C [1] 31.4% | viability, T/C (second compound 0.1 µM, first compound 0.1 µM) 27% | viability, T/C (second compound 0.1 µM, first compound 0.316 µM) 23.2% | viability, T/C (second compound 0.1 µM, first compound 1 µM) 18.1% | viability, T/C [2] 29.8% | viability, T/C (second compound 0.316 µM, first compound 0.1 µM) 26.9% | viability, T/C (second compound 0.316 µM, first compound 0.316 µM) 23.7% | viability, T/C (second compound 0.316 µM, first compound 1 µM) 18.1% | viability, T/C [3] 24.2% | viability, T/C (second compound 1 µM, first compound 0.1 µM) 23.9% | viability, T/C (second compound 1 µM, first compound 0.316 µM) 23.4% | viability, T/C (second compound 1 µM, first compound 1 µM) 13%

From PubChem BioAssay AID1963862 (Molecular Pharmacology Branch, DTP, NCI, 2024)
